Reference: US20130281313A1, “PROGNOSTIC AND/OR PREDICTIVE BIOMARKERS AND BIOLOGICAL APPLICATIONS THEREOF” (INSTITUT GUSTAVE ROUSSY, priority 2010, published 2013)

How the values were obtained:
[1] = system: A549 cells xenografted into immunodeficient Swiss nude mice; assay: Tumor graft model: A549 cells in Swiss nude mice; format: in vivo, mouse; settings: A549 cells on Swiss nude mice; 5 mg/kg intraperitoneal CDDP + intraperitoneal Orlistat (240 mg/Kg), three times a week
Experimental: (§1) C57BL/6 (H-2b) and Swiss Nude mice were obtained from Janvier (Le Genest St. Isle, France) and Charles River, respectively. Animals were maintained in pathogen-free conditions, and all experiments were carried out (upon approval by the local ethical committee) according to the Federation of European Laboratory Animal Science Association (FELASA) guidelines. Mice were used between 6 and 12 weeks of age. During the experiments, animals were subjected to artificial light cycle (12 h lights on-12 h lights off) and allowed food and drink ad libitum.
(§2) 5×10^5 LLC and A549 cells were subcutaneously xenografted (in 100 μL sterile PBS) in 25-30 immunocompetent (C57BL/6) and immunodeficient (Swiss Nude) mice, respectively. When the surface of tumors reached 25-40 mm^2, n=4-6 mice were assigned to either of 4 different treatment groups: group 1=100 μL intraperitoneal PBS; group 2=5 mg/kg intraperitoneal CDDP in 100 μL PBS; group 3=240 mg/Kg intraperitoneal Orlistat® in 40 μL PBS; group 4=5 mg/kg intraperitoneal CDDP in 100 μL PBS+intraperitoneal Orlistat® in 40 μL PBS. Treatments were administered three times a week (day 1, 3 and 5; day 8=day 1). Tumor size was monitored on the day of treatment by means of a standard calliper and tumor volume was extrapolated as previously described {Streit, 1999}. […] Statistical significance was evaluated by two-way ANOVA.

[2] = system: A549 cells; assay: Cytofluorometric assessment of cell death (DiOC6(3)/PI co-staining); format: cell-based, human
Experimental: Unless otherwise specified, chemicals were purchased from Sigma-Aldrich (St. Louis, USA), culture media and supplements for cell culture from Gibco-Invitrogen (Carlsbad, USA) and plasticware from Corning (Corning, USA). […] Orlistat (Xenical®) was obtained from Roche (Basel, Switzerland). […] Undissolved material was removed by two sequential rounds of centrifugation at 12,000 G (5 min, room temperature, RT), supernatants were collected and stored at −80° C. under protection from light until use. In low-throughput experiments, all cell lines were treated with 2.5 mM pyridoxine (PN), exception made for A549 cells that received 5 mM PN.
To avoid depleting the siRNA library of selected sequences, siRNAs for validation experiments were purchased as custom molecules from Sigma-Aldrich. For low-throughput experiments, (see below for the transfection protocols employed in the siRNA screen), siRNA were transfected in A549 cells with Oligofectamine™ reagent (Invitrogen), following the manufacturer's instructions. Transfection with a non-targeting siRNA (siUNR) was employed as a negative control condition. Forty-eight hours after transfection, siRNA-mediated target downregulation was assessed by immunoblotting (see below).
All cytofluorometric determinations were carried out a FACSCalibur or a FACScan cytofluorometer (BD Biosciences, San Jose, USA) equipped with a 70 μm nozzle.
First line statistical analysis of cytofluorometric results was performed by using the CellQuest™ software (BD Biosciences), by gating on the events characterized by normal forward scatter and side scatter parameters. Apoptosis- and cell cycle-related data were further analyzed with Microsoft Excel (Microsoft Co., Redmond, USA) and statistical significance was assessed by means of two-tailed Student's t test (p<0.05).

[3] = system: murine Lewis lung carcinoma (LLC) cells in immunocompetent C57BL/6 mice; assay: Tumor graft model: LLC cells in C57BL/6 mice; format: in vivo, mouse; settings: 5 mg/kg intraperitoneal CDDP + intraperitoneal Orlistat (240 mg/Kg), three times a week
Experimental: as §1, §2

CCCCCCCCCCC[C@@H](C[C@@H]1OC(=O)[C@H]1CCCCCC)OC(=O)[C@H](CC(C)C)NC=O [Orlistat®, Orlistat]
antitumor effects of CDDP-based chemotherapy (tumor growth) [1]: augmented the antitumor effects of CDDP-based chemotherapy in vivo
cytotoxicity of CDDP upon pharmacological inhibition of LIPC ([2]; A549 cells in vitro, 25 or 75 μM CDDP): enhanced the cytotoxiticy of CDDP against A549 cells in vitro
CDDP-induced killing, LIPC inhibition (orlistat) combined with IL6R inhibition ([2]; A549 cells, followed by CDDP, DiOC6(3)/PI co-staining): synergistically sensitized to CDDP-induced killing
antitumor effects of CDDP-based chemotherapy (tumor growth) [3]: augmented the antitumor effects of CDDP-based chemotherapy in vivo
